Experimental findings from patent US8067611B2, “Substituted 1-(thiazolyl)-and 1-(isothiazolyl)pyrazol-4-ylacetic acids, processes for their preparation and their use as herbicides and plant growth regulators” (Bayer CropScience AG, priority 2008, dated 2011) are described below.

What all share (type): in vivo
The test system of assay [1] is weed-grasses and broad-leaved weeds. Put plainly: Post-emergence herbicidal effect, greenhouse pot test. To be noted: application rate of 1 kg and less of active substance per hectare, scored after 3 weeks. How it is done:
Seeds of monocotyledonous or dicotyledonous weed plants or crop plants are planted in wood-fiber pots in sandy loam, covered with soil and grown in a greenhouse under good growth conditions. 2 to 3 weeks after sowing, the test plants are treated in the one-leaf stage. The compounds according to the invention, formulated in the form of wettable powders (WP), are then sprayed onto the green plant parts as aqueous suspension or emulsion at a water application rate of 600 I/ha (converted) with the addition of 0.2% of wetting agent. After 3 weeks' standing time of the test plants in the greenhouse under optimum growth conditions, the effect of the preparations is scored visually in comparison with untreated controls (herbicidal effect in percent (%): 100% effect=plants have died, 0% effect=as control plants).

Another assay has as its system Setaria viridis. Put plainly: Pre-emergence herbicidal effect, greenhouse pot test. As to conditions: 1.0 kg or 0.32 kg of active substance per hectare, 100% = plants have died. The text has this:
(§1) Seeds of monocotyledonous or dicotyledonous weed plants or crop plants are planted in wood-fiber pots in sandy loam and covered with soil. The compounds (I) according to the invention, formulated in the form of wettable powders (WP), are then applied as aqueous suspension or emulsion at a water application rate of 600 I/ha (converted) with the addition of 0.2% of wetting agent to the surface of the covering soil.
(§2) Following the treatment, the pots are placed in a greenhouse and kept under good growth conditions for the test plants. After about 3 weeks, the effect of the preparations is scored visually in comparison with untreated controls (herbicidal effect in percent (%): 100% effect=plants have died, 0% effect=as control plants).

Another assay has as its system Alopecurus myosuroides. The assay is described as above. To be noted: 1.0 kg or 0.32 kg of active substance per hectare, 100% = plants have died.
Excerpt: as §1, §2

The test system of another assay is Echinochloa crus galli. The assay is described as above. As to conditions: 1.0 kg or 0.32 kg of active substance per hectare, 100% = plants have died.
Excerpt: as §1, §2

The test system of another assay is Avena fatua. Described as above. To be noted: 1.0 kg or 0.32 kg of active substance per hectare, 100% = plants have died.
Excerpt: as §1, §2

A further assay has as its system harmful plants. Described as above. As to conditions: application rate of 1 kg or less of active substance per hectare, scored after about 3 weeks.
Excerpt: as §1, §2

Structures are written as SMILES.

`COC(=O)Cc1c(C)nn(-c2cncs2)c1-c1cnc(C)cn1` [Compound 8-217]: the “post-emergence activity against a broad spectrum of weed-grasses and broad-leaved weeds” value (from here on “post-emergence activity”) in assay [1] is recorded as “good post-emergence activity”. For the same molecule, the herbicidal activity in the assay on Setaria viridis, in the assay with Alopecurus myosuroides, with Echinochloa crus galli and in the assay with Avena fatua was at least 80% each time. Further, the “herbicidal pre-emergence activity against a number of harmful plants” value (from here on “herbicidal pre-emergence activity”) in the assay on harmful plants is “good herbicidal pre-emergence activity”.
Turning to `COC(=O)Cc1c(C)nn(-c2cncs2)c1-c1ccc(Cl)cc1` [Compound 8-28, methyl[5-(4-chlorophenyl)-3-methyl-1-(1,3-thiazol-5-yl)-1H-pyrazol-4-yl]acetate], the “post-emergence activity” value in assay [1] is listed as “good post-emergence activity”. Also, in the assay on harmful plants, the “herbicidal pre-emergence activity” value is given as “good herbicidal pre-emergence activity”.
On to `COC(=O)Cc1c(C)nn(-c2cncs2)c1-c1ccc(F)cc1` [Compound 8-133], for which the “post-emergence activity” value in assay [1] is reported as “good post-emergence activity”. Moreover, in the assay with harmful plants, the “herbicidal pre-emergence activity” value was “good herbicidal pre-emergence activity”.
Taken in the same sequence, the figures for `COC(=O)Cc1c(C)nn(-c2ccns2)c1-c1ccccn1` [Compound 2-116] were “good post-emergence activity” and “good herbicidal pre-emergence activity”.
For `COC(=O)Cc1c(C)nn(-c2cnsc2)c1-c1ncc(Br)cn1` [Compound 5-227] the same measures were “good post-emergence activity” and “good herbicidal pre-emergence activity”.
`Cc1nn(-c2ccns2)c(-c2ccc(Br)s2)c1CC(=O)O` [Compound 1-67]: the “post-emergence activity” value in assay [1] was “good post-emergence activity”. In the assay on harmful plants, the “herbicidal pre-emergence activity” value is recorded as “good herbicidal pre-emergence activity”.
For `COC(=O)Cc1c(C)nn(-c2cncs2)c1-c1cc2ccccc2cn1` [Compound 8-240] the same measures were “good post-emergence activity” and “good herbicidal pre-emergence activity”.
As to `COC(=O)Cc1c(C)nn(-c2cncs2)c1-c1ccc(Br)s1` [Compound 8-69], in assay [1], the “post-emergence activity” value is on record as “good post-emergence activity”. Besides, the “herbicidal pre-emergence activity” value in the assay with harmful plants is “good herbicidal pre-emergence activity”.
Taken in the same sequence, the figures for `CCOC(=O)Cc1c(C)nn(-c2cncs2)c1-c1ccc(Cl)cc1` [Compound 9-4] were “good post-emergence activity” and “good herbicidal pre-emergence activity”.
